Measurements published in the supplement of paper PMC10307832.

Columns and labels:
Experiment in all cases: relative viability (nuclei count vs DMSO), 5 days (fraction); higher = more cells survive
[1] = compound: CC1=CC=C(C=C1)C(=O)CN2C3=C(CCCC3)SC2=N [Pifithrin_alpha] + Nc1ncn([C@H]2C[C@H](O)[C@@H](CO)O2)c(=O)n1 [Decitabine] (partner 2 µM)
Method in brief: (§1)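 Nuclei were stained with Hoechst during a one-step fixation (final 0.05% Triton X-100, 1% formaldehyde, 1 ug/ml Hoechst) carried out 5 days after dosing, then counted on 4× images. The cells, lung cancer lines in 1536-well plates, had been dosed by pin tool the day after seeding with one drug alone or a fixed anchor-drug dose plus five library-drug doses (not always all listed) in √10 steps. Relative viability is the nuclei count in treated wells divided by that in vehicle wells, and each value is the median of duplicate plates.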

Axitinib + Foretinib = compound: CNC(=O)c1ccccc1Sc1ccc2c(/C=C/c3ccccn3)n[nH]c2c1 [Axitinib] + COc1cc2c(Oc3ccc(NC(=O)C4(C(=O)Nc5ccc(F)cc5)CC4)cc3F)ccnc2cc1OCCCN1CCOCC1 [Foretinib] (partner 0.25 µM)
Method in brief: as §1

Axitinib + Bortezomib = compound: CNC(=O)c1ccccc1Sc1ccc2c(/C=C/c3ccccn3)n[nH]c2c1 [Axitinib] + CC(C)C[C@H](NC(=O)[C@H](Cc1ccccc1)NC(=O)c1cnccn1)B(O)O [Bortezomib] (partner 0.002 µM)
Method in brief: as §1

Cell Line	relative viability ([1]; first compound 1 µM)	relative viability ([1]; first compound 3.162 µM)	relative viability ([1]; first compound 10 µM)	relative viability ([1]; first compound 31.62 µM)	relative viability ([1]; first compound 100 µM)	relative viability (Axitinib + Foretinib; first compound 0.005 µM)	relative viability (Axitinib + Foretinib; first compound 0.01581 µM)	relative viability (Axitinib + Foretinib; first compound 0.05 µM)	relative viability (Axitinib + Foretinib; first compound 0.1581 µM)	relative viability (Axitinib + Foretinib; first compound 0.5 µM)	relative viability (Axitinib + Bortezomib; first compound 0.005 µM)	relative viability (Axitinib + Bortezomib; first compound 0.05 µM)	relative viability (Axitinib + Bortezomib; first compound 0.1581 µM)	relative viability (Axitinib + Bortezomib; first compound 0.5 µM)	relative viability (Axitinib + Bortezomib; first compound 0.01581 µM)
SK-MES-1	0.351	0.424	0.353	0.411	0.352	0.976	0.977	1.02	0.925	0.951	–	–	–	–	–
NCI-H1648	0.478	0.597	0.464	0.406	0.496	–	–	–	–	–	–	–	–	–	–
PC-3 [JPC-3]	–	0.742	–	0.714	0.642	1.01	0.988	1.02	1	1.23	0.98	0.807	0.833	0.964	–
NCI-H1666	0.523	0.595	0.557	0.615	0.569	1	1.03	0.995	1.02	0.935	0.938	0.97	0.922	0.92	0.881
IA-LM	–	–	–	–	–	1.27	1.14	1.13	1.09	1.35	1.17	0.899	0.846	0.728	0.775
HCC-78	–	0.623	0.673	0.623	0.56	0.582	0.536	0.512	0.6	0.548	0.643	0.305	0.499	0.566	0.491
HCC-366	0.308	0.326	0.403	–	0.297	0.949	0.958	0.865	0.966	0.977	0.977	1.11	1	1.13	0.994
NCI-H520	0.595	0.481	0.578	0.397	0.507	0.808	0.64	0.706	–	0.829	0.685	0.474	0.5	0.705	0.698
NCI-H1355	0.308	0.349	0.339	0.29	0.304	1.03	0.945	1.04	0.956	1.1	1.26	1.32	1.17	1.15	1.13
SW 1573	0.516	0.449	0.509	–	0.587	0.743	0.915	1.26	0.811	0.989	1.19	0.944	0.923	0.994	1.05
COR-L 105	0.652	0.622	0.62	0.646	0.581	0.973	1.12	1.16	1.05	1.49	0.748	0.798	0.758	0.92	0.868
COR-L23	0.412	0.399	0.404	–	0.328	1.1	0.953	1.13	0.948	1.02	1.05	0.943	0.959	1.2	1.04
NCI-H322M	0.72	0.708	0.719	0.78	0.784	1.18	0.926	0.922	0.859	1.12	1.34	1.12	1.2	1.12	1.07
NCI-H2347	0.576	0.685	0.603	0.65	0.698	0.954	0.747	1.12	1.11	0.799	1.26	1.36	0.798	0.692	0.752
RERF-LC-KJ	0.681	0.621	0.562	0.382	0.451	0.916	0.892	0.887	0.86	0.854	1.12	1.02	1.14	1.19	1.12
NCI-H2228	–	–	–	–	–	0.877	0.95	0.974	0.842	0.943	1.31	0.886	0.954	1.07	0.829
A549	–	0.249	0.215	0.207	0.327	0.977	0.973	0.972	0.976	1.23	–	–	–	–	–
NCI-H358	0.206	0.205	0.19	0.217	0.16	0.701	0.738	0.859	0.695	0.925	–	–	–	–	–
NCI-H2342	0.685	0.779	0.744	0.64	0.678	1.29	1.04	0.982	1.02	1.07	–	–	–	–	–
A-427	0.485	0.582	0.543	0.485	0.531	1.12	1.15	1.12	0.94	1.26	1.07	0.988	1.06	1.13	1.04
NCI-H2126	0.518	0.594	0.576	0.49	0.548	1.27	0.967	1.09	1.21	1.26	1.15	1.07	1.04	1.11	1.05
NCI-H647	0.442	0.403	0.376	0.339	0.406	1.26	1.16	1.03	1.23	1.56	1.04	0.94	1.01	1.08	1.1
ChaGo-K-1	0.491	0.533	0.515	0.407	0.496	0.961	1	0.984	0.889	1	0.953	1.13	1.05	1.16	0.919
UMC-11	0.551	0.601	0.597	0.525	0.595	1.01	1.1	1.03	1.1	1.1	0.977	0.65	0.637	0.589	0.722
LOU-NH91	0.758	0.79	0.808	0.705	0.742	0.917	0.659	0.981	0.962	0.957	0.517	0.43	0.475	0.57	0.537
HCC-44	0.859	0.919	0.812	0.779	0.857	–	–	–	–	–	0.925	0.855	0.89	1.01	0.859

Cell Line	relative viability ([1]; first compound 1 µM)	relative viability ([1]; first compound 3.162 µM)	relative viability ([1]; first compound 10 µM)	relative viability ([1]; first compound 31.62 µM)	relative viability ([1]; first compound 100 µM)	relative viability (Axitinib + Foretinib; first compound 0.005 µM)	relative viability (Axitinib + Foretinib; first compound 0.01581 µM)	relative viability (Axitinib + Foretinib; first compound 0.05 µM)	relative viability (Axitinib + Foretinib; first compound 0.1581 µM)	relative viability (Axitinib + Foretinib; first compound 0.5 µM)	relative viability (Axitinib + Bortezomib; first compound 0.005 µM)	relative viability (Axitinib + Bortezomib; first compound 0.05 µM)	relative viability (Axitinib + Bortezomib; first compound 0.1581 µM)	relative viability (Axitinib + Bortezomib; first compound 0.5 µM)	relative viability (Axitinib + Bortezomib; first compound 0.01581 µM)
HCC-15	0.657	0.738	0.573	0.531	0.456	1.1	1.11	0.958	0.99	0.999	1.08	1.01	0.988	1.06	0.995
NCI-H1975	0.663	0.339	0.306	0.311	0.279	1.05	0.944	0.938	0.997	1.03	0.404	0.397	0.394	0.463	0.357
NCI-H1651	0.166	0.642	0.569	0.537	0.635	0.879	0.896	0.876	0.878	0.859	0.926	0.934	0.889	0.857	0.942
NCI-H661	0.536	0.591	0.587	0.542	0.469	1.06	1.01	1.09	1.04	1.12	0.93	0.648	0.785	0.842	0.83
NCI-H23	0.317	0.316	0.317	0.283	0.337	1.06	0.948	1.06	0.955	1.02	1.06	1	1.03	1.02	1.09
PC-14	0.236	0.184	0.219	0.155	0.123	0.92	0.819	0.989	0.861	1.03	1.04	0.81	0.826	1.08	0.894
NCI-H522	0.681	0.722	0.693	0.673	0.579	–	–	–	–	–	–	–	–	–	–
H3255	0.581	0.66	0.646	0.389	0.572	1.03	0.61	0.848	0.859	0.801	0.672	0.856	0.962	0.6	0.778
NCI-H1563	–	–	–	–	–	0.934	0.918	0.884	0.847	0.938	0.908	0.846	0.876	0.763	0.827
NCI-H3122	0.529	0.443	0.539	0.364	0.468	0.928	0.847	1.02	1.01	0.951	0.904	1.04	1.05	1.07	1.03
NCI-H1703	–	–	–	–	–	0.362	0.292	0.376	0.371	0.325	0.353	0.161	0.212	0.207	0.228
NCI-H2009	0.361	0.349	0.404	0.344	0.409	1.21	1.23	1.23	1.27	1.08	1.1	1.04	1.04	1.16	1.11
Calu-6	–	–	–	–	–	0.955	0.902	0.855	0.904	0.947	1.11	0.956	1.1	0.996	0.944
HCC-827	0.136	0.357	0.31	0.334	0.345	1.06	0.984	1.04	1.01	1.13	1.11	1.04	1.02	1.15	1.06
LXF-289	0.359	0.335	0.388	0.366	0.369	1.07	0.902	0.913	0.983	1.05	0.977	0.974	0.974	1	0.918
NCI-H1792	0.457	0.48	0.624	–	0.423	–	–	–	–	–	1	0.952	0.953	0.894	0.982
LK-2	0.202	0.266	0.309	0.224	0.316	1.31	1.03	1.06	1.1	1.42	–	–	–	–	–
NCI-H1944	0.406	0.461	0.39	0.337	0.343	0.892	0.881	0.978	0.882	1	–	–	–	–	–
CAL-12T	–	–	–	–	–	1.13	1.08	1.15	1.17	1.21	1.03	0.955	1.11	0.965	0.978
EBC-1	–	–	–	–	–	0.104	0.116	0.0984	0.0972	0.122	0.631	0.521	0.565	0.629	0.657
NCI-H2170	0.48	0.453	0.476	0.427	0.453	1.02	0.716	1.03	0.939	1.01	–	–	–	–	–
SW 900	0.395	0.381	0.423	0.389	0.447	1.02	0.673	0.941	1.01	1.12	–	–	–	–	–
NCI-H1395	–	0.649	0.709	–	0.735	0.97	1.03	0.982	0.939	0.918	–	–	–	–	–
NCI-H1299	–	–	–	–	–	1.06	1.04	1.08	1.08	1.24	1.05	1.07	0.976	1.06	0.989
NCI-H1793	0.442	0.464	0.489	0.323	0.454	0.851	0.597	0.764	0.65	0.687	–	–	–	–	–
NCI-H1623	–	–	–	–	–	0.948	0.846	0.758	0.838	0.885	–	–	–	–	–
